Activity calls are given as the source filed them. How the calls were made is not given here.
System: rodent carcinogenicity bioassays, tumor incidence
Assay: CCRIS carcinogenicity studies
Procedure, shortened: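 NCI-built, expert-reviewed records of carcinogenicity and related test outcomes (mutagenicity, tumor promotion/inhibition) compiled from published and report sources, historical span 1985-2011, not updated.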

## O=C(O)CC[N+](=O)[O-]
Species: MOUSE, Strain/Sex: B6C3F1/FEMALE, Route: GAVAGE, Dose: 0, 0.375, 0.75 MG/ANIMAL/DAY FOR 104 WK (STUDY DURATION: 104-105 WK), Dose: 0, 0.375, 0.75 MG/ANIMAL/DAY FOR 104 WK (STUDY DURATION: 104-105 WK)
  carcinogen call: inactive; negative
Species: MOUSE, Strain/Sex: B6C3F1/MALE, Route: GAVAGE, Dose: 0, 0.375, 0.75 MG/ANIMAL/DAY FOR 104 WK (STUDY DURATION: 104-105 WK), Dose: 0, 0.375, 0.75 MG/ANIMAL/DAY FOR 104 WK (STUDY DURATION: 104-105 WK)
  carcinogen call: inactive; negative
Species: RAT, Strain/Sex: F344/FEMALE, Route: GAVAGE, Dose: 0, 0.6, 1.2 MG/ANIMAL/DAY FOR 110 WK (STUDY DURATION: 111 WK), Dose: 0, 0.6, 1.2 MG/ANIMAL/DAY FOR 110 WK (STUDY DURATION: 111 WK)
  carcinogen call: inactive; negative
Species: RAT, Strain/Sex: F344/MALE, Route: GAVAGE, Dose: 0, 0.425, 0.85 MG/ANIMAL/DAY FOR 110 WK (STUDY DURATION: 111 WK), Dose: 0, 0.425, 0.85 MG/ANIMAL/DAY FOR 110 WK (STUDY DURATION: 111 WK), Tumor Site: Type of Lesion: LIVER: HEPATOCELLULAR NEOPLASM, PANCREAS: ISLET CELL ADENOMA
  carcinogen call: equivocal

## OCc1ccn2c1[C@H](O)CC2
Species: MOUSE, Strain/Sex: SWISS/FEMALE, Route: DERMAL/SUBCUTANEOUS, Dose: 0, 20 MG/KG IN 0.2 ML ACETONE TO SHAVED MID-BACK REGION AND 0, 20 MG/KG IN 0.1 ML PHOSPHATE BUFFER TO INTERSCAPULAR REGI, Dose: 0, 20 MG/KG IN 0.2 ML ACETONE TO SHAVED MID-BACK REGION AND 0, 20 MG/KG IN 0.1 ML PHOSPHATE BUFFER TO INTERSCAPULAR REGI, Tumor Site: Type of Lesion: SKIN: BASAL CELL CARCINOMA
  carcinogen call: active; positive
Species: MOUSE, Strain/Sex: SWISS/FEMALE, Route: DERMAL, Dose: 0, 20 MG/KG IN 0.2 ML ACETONE 1/WK FOR 4 WK AFTER 6 MO ANIMALS WITHOUT TUMORS TREATED AGAIN 1/WK FOR 2 WK (STUDY DURATIO, Tumor Site: Type of Lesion: SKIN: BASAL CELL CARCINOMA
  carcinogen call: active; positive
Species: MOUSE, Strain/Sex: SWISS/FEMALE, Route: SUBCUTANEOUS, Dose: 0, 20 MG/KG IN 0.1 ML PHOSPHATE BUFFER 1/WK FOR 4 WK AFTER 6 MO ANIMALS WITHOUT TUMORS TREATED AGAIN 1/WK FOR 2 WK (STUD, Tumor Site: Type of Lesion: SKIN: BASAL CELL CARCINOMA
  carcinogen call: active; positive

## CC(=O)CN(CC(C)O)N=O (configuration not stated)
Species: RAT, Strain/Sex: F344/FEMALE, Route: INTRAVESICULAR, Dose: 0, 2.5 MG IN 0.2 ML ETHANOL:DEIONIZED WATER (1:3) 2/WK FOR 22 WK (TOTAL DOSE 0.7 MMOL) (STUDY DURATION: LIFESPAN), Tumor Site: Type of Lesion: BLADDER: TUMOR, LIVER: TUMOR
  carcinogen call: active; positive
Species: RAT, Strain/Sex: F344/FEMALE, Route: ORAL, Dose: 0, 55, 220 MG/L DRINKING WATER 5 D/WK FOR 40, 21 WK (TOTAL DOSE 220; 460 MG) (STUDY DURATION: LIFESPAN), Dose: 0, 55, 220 MG/L DRINKING WATER 5 D/WK FOR 40, 21 WK (TOTAL DOSE 220; 460 MG) (STUDY DURATION: LIFESPAN), Tumor Site: Type of Lesion: LIVER: CARCINOMA, ANGIOSARCOMA, LUNG: TUMOR, ESOPHAGUS: CARCINOMA, PAPILLOMA, NASAL CAVITY: TUMOR, Tumor Site: Type of Lesion: LIVER: CARCINOMA, ANGIOSARCOMA, LUNG: TUMOR, ESOPHAGUS: CARCINOMA, PAPILLOMA, NASAL CAVITY: TUMOR
  carcinogen call: active; positive

## N[C@H](CCC(=O)N[C@H](Cc1c[nH]c2ccccc12)C(=O)O)C(=O)O
Species: MOUSE, Strain/Sex: C57BL.CBA, Route: SC, Dose: 0.0145 AND 0.145 MG/KG 2X WK FOR 104 WK (STUDY DURATION: 104 WK)
  carcinogen call: inactive; negative
Species: RAT, Strain/Sex: WISTAR, Route: SC, Dose: 0.0145 AND 0.145 MG/KG 2X WK FOR 104 WK (STUDY DURATION: 104 WK)
  carcinogen call: inactive; negative

## O=C(C1CCCCC1)N1CC(=O)N2CCc3ccccc3C2C1 (configuration not stated)
Species: HAMSTER, Strain/Sex: SYRIAN/MALE, Route: GAVAGE, Dose: 0, 300 MG/KG IN CORN OIL 1/5 WK FOR A TOTAL OF 5 DOSES (STUDY DURATION: 40 WK)
  carcinogen call: inactive; negative
